Laboratory results: ChEMBL document CHEMBL5360622, “Leucettinibs, a Class of DYRK/CLK Kinase Inhibitors Inspired by the Marine Sponge Natural Product Leucettamine B” (J Med Chem, 2023)
pIC50: −log10 of the molar value.

What was measured:
[1] = target: Dual specificity protein kinase CLK1 (Homo sapiens, UniProt P49759); format: cell-based, Sf9
[2] = target: Dual specificity protein kinase CLK2 (Homo sapiens, UniProt P49760)
[3] = target: Dual specificity protein kinase CLK3 (Homo sapiens, UniProt P49761); format: cell-based, Sf9
Sequence of Dual specificity protein kinase CLK3 (P49761 whole entry): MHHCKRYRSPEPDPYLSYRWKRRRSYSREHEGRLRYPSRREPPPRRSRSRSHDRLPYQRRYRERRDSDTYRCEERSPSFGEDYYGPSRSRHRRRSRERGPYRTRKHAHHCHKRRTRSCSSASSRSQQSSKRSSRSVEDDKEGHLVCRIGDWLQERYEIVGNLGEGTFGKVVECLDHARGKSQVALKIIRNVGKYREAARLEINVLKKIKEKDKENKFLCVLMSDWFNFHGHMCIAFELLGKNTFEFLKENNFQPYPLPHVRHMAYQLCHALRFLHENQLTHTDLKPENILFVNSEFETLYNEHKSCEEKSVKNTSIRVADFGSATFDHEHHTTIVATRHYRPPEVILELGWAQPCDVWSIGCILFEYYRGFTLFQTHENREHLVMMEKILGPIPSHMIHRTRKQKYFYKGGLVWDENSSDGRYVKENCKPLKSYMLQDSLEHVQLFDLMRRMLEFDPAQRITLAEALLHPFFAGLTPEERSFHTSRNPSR

[4] = target: Dual specificity protein kinase CLK4 (Homo sapiens, UniProt Q9HAZ1)
Sequence of Dual specificity protein kinase CLK4 (Q9HAZ1 whole entry): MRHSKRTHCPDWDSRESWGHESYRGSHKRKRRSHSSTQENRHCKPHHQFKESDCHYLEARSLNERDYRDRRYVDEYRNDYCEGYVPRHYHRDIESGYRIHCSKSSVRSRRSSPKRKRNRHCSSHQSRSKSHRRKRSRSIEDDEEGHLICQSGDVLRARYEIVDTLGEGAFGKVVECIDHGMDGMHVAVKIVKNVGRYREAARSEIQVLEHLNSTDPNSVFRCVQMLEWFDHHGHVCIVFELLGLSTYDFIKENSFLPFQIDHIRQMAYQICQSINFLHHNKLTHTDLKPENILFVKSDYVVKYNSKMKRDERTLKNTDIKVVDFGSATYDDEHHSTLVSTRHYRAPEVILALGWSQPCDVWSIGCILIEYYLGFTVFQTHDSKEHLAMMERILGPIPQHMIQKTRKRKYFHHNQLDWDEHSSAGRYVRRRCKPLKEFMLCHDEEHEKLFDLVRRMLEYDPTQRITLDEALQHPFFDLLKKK

[5] = target: T1, Dual specificity tyrosine-phosphorylation-regulated kinase 3 (Homo sapiens, UniProt O43781)
T1 sequence (O43781 whole entry): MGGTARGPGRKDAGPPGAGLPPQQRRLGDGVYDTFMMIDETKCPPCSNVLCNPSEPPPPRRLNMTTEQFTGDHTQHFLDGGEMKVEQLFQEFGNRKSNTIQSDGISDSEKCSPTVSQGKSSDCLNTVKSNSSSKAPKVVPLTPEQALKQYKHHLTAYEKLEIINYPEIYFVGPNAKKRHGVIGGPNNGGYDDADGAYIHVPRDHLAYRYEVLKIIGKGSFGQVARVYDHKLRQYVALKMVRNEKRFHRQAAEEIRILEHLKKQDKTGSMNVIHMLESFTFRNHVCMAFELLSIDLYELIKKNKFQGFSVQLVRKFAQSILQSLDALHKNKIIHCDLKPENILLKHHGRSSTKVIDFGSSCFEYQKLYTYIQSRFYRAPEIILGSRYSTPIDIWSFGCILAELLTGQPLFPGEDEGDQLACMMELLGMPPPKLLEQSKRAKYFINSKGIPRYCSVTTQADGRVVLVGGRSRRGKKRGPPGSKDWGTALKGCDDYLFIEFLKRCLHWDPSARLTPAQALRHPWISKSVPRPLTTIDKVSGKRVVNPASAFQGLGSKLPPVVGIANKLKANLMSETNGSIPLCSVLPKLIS

[6] = target: Dual specificity tyrosine-phosphorylation-regulated kinase 1A (Homo sapiens, UniProt Q13627)
[7] = target: BMP-2-inducible protein kinase (Homo sapiens) (UniProt Q9NSY1); conditions: dose 10.0 µM
Sequence of BMP-2-inducible protein kinase (Homo sapiens) (Q9NSY1 whole entry, looked up): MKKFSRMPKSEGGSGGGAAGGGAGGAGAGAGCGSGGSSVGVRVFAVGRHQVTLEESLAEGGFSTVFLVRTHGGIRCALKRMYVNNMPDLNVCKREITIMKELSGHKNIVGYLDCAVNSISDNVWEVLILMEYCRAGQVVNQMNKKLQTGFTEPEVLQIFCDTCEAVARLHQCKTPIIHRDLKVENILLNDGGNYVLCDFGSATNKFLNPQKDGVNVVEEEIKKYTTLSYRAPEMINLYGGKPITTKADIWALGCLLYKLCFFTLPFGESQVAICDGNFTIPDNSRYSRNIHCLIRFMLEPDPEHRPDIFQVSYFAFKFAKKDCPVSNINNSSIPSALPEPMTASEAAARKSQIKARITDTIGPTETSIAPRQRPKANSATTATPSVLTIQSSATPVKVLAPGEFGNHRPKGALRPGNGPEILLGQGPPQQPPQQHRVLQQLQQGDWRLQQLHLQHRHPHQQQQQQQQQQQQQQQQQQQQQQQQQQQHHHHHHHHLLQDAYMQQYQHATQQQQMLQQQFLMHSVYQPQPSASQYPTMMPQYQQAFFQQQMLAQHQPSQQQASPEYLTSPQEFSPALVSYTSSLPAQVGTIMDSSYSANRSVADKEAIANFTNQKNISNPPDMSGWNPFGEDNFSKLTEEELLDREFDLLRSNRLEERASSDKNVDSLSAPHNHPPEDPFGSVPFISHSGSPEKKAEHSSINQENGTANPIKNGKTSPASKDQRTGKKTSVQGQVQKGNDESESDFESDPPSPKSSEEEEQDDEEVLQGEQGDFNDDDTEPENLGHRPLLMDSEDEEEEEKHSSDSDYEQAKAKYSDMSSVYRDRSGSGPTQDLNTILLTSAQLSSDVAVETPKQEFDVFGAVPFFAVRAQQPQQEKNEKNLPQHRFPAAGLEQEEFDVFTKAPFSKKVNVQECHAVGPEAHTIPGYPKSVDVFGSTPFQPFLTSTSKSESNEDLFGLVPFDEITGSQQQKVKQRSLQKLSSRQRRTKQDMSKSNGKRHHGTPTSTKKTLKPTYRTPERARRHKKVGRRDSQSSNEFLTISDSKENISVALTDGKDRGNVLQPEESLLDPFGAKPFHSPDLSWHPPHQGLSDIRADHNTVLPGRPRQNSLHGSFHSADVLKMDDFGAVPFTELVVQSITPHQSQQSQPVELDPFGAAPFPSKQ

[8] = target: Serine/threonine-protein kinase pim-3 (Homo sapiens) (UniProt Q86V86); conditions: dose 10.0 µM
[9] = target: Homeodomain-interacting protein kinase 2 (Homo sapiens) (UniProt Q9H2X6); conditions: dose 10.0 µM
Sequence of Homeodomain-interacting protein kinase 2 (Homo sapiens) (Q9H2X6 whole entry, looked up): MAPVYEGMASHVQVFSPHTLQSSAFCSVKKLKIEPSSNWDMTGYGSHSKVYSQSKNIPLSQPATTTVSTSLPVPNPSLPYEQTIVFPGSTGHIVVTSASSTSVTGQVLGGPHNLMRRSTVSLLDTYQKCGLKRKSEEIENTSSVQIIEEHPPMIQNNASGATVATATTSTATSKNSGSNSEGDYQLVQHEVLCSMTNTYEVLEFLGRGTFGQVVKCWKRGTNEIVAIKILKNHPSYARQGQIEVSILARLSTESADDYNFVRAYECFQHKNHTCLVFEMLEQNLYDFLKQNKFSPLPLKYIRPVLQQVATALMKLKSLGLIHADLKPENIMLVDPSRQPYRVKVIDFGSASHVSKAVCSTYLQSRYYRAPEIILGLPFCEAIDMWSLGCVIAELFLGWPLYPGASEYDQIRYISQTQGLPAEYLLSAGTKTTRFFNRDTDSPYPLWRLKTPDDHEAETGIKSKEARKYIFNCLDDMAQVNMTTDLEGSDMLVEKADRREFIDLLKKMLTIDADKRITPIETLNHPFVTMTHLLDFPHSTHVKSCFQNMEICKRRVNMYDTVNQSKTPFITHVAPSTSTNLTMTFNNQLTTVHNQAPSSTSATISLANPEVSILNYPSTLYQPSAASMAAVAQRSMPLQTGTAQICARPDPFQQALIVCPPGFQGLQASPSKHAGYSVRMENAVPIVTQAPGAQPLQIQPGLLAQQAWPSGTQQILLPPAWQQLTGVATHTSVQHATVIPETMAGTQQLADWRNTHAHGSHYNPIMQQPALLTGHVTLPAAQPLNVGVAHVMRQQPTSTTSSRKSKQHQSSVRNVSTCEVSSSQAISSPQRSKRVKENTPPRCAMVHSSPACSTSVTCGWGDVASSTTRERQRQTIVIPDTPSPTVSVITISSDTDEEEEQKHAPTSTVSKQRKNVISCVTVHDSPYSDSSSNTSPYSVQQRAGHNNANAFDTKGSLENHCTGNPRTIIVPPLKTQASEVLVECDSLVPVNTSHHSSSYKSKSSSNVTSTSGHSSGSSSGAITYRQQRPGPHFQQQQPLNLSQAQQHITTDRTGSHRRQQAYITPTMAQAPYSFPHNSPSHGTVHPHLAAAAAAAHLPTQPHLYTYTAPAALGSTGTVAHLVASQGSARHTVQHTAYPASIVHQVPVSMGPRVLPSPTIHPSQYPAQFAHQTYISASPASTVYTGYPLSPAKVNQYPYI

Sequence of Dual specificity protein kinase CLK2 (P49760 whole entry): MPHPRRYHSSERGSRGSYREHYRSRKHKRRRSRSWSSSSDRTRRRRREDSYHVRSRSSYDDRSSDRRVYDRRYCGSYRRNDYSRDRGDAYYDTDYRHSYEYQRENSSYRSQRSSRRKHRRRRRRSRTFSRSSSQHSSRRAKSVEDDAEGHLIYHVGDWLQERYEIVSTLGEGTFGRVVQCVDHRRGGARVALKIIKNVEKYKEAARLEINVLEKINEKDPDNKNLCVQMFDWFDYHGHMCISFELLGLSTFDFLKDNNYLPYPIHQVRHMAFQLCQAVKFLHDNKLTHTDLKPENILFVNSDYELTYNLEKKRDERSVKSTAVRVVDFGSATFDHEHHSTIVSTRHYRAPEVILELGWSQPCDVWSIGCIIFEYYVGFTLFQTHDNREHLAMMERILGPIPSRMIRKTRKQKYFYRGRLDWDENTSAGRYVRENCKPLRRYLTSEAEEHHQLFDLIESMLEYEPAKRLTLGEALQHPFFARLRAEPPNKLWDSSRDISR
Sequence of Dual specificity protein kinase CLK1 (P49759 whole entry): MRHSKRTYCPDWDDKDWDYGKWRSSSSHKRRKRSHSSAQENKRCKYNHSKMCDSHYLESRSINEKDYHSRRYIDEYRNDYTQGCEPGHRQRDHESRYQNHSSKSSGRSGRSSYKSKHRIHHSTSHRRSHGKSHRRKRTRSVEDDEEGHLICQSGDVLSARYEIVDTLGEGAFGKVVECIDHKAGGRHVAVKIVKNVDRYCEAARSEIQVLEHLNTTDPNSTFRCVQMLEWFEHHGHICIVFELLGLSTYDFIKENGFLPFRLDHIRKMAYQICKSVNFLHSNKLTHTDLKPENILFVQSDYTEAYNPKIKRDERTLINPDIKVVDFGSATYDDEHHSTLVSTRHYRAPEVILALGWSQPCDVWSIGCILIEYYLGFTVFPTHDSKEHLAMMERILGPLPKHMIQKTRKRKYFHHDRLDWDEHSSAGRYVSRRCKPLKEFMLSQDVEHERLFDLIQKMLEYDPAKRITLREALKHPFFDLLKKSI

pIC50 [1]: 5.05
pIC50 [2]: 5.08
pIC50 [3]: < 5.00
pIC50 [4]: 5.46
pIC50 [5]: < 5.00
pIC50 [6]: 5.47
ΔTm [7]: -0.1 °C
ΔTm [8]: 1 °C
ΔTm [9]: -0.4 °C
Structure (SMILES): O=C1NC(NC23CC4CC(CC(C4)C2)C3)=N/C1=C\c1ccc2scnc2c1
